The test system of data set [1] is BMDM. Briefly: AlamarBlue cytotoxicity assay, BMDM. Type of data set: cell-based, BALB/c mice. Conditions: average of 3–6 independent experiments, read-out: IC50 BMDMs.
The subject of data set [2] is L. major promastigotes. Description: AlamarBlue assay against L. major promastigotes. In kind it is cell-based, Leishmania major. The conditions noted are these: for IC50 (μM) promastigotes: Table 2, without dynasore. How it is done: Cytotoxicities of the different compounds or formulations against mammalian cell (BMDM or 293T epithelial cells) and L. major promastigotes were determined as previously described. Briefly, 4 × 10^4 mammalian cells or 10 × 10^6 virulent L. major promastigotes (MHOM/IL/81/FE/BNI strain) in the log phase of growth were added to each well of 96-well plates and cultured with five increasing concentrations of each compound at 37°C or 27°C for 24 h, respectively. Standard antileishmanial drugs including amphotericin B (A2942), pentamidine isothionate (P0547) and paromomycin sulfate (P9297) from Sigma-Aldrich (Deisenhofen, Germany) and miltefosine (1-hexadecylphosphorylcholine) (Cayman Chemical Company, Ann Arbor, MI, USA) were used as positive controls. The AlamarBlue dye (Trinova Biochem GmbH, Giessen, Germany) was added to each well at 10% concentration and incubated for a further 48 h. The optical density (OD) was then measured by using Multiskan Ascent ELISA reader at a wavelength 550 nm and 630 nm. The OD value or % dye reduction is proportional to viable cell/parasite number and was used for IC50 calculation based on the intercept theorem.

Data set [3] relates to intracellular L. major amastigotes. Briefly: microbe, parasite or virus in culture. Type of data set: cell-based, Leishmania major. Conditions: for IC50: intracellular amastigotes in BMDM, luciferase; for IC50 (μM) amastigotes: Table 2, without dynasore, two independent experiments. How it is done:
The assay is based on bioluminescence measurement of firefly luciferase, which catalyzes the formation of light from ATP and luciferin. The virulent luciferase-transgenic (Luc-tg) L. major strain containing a firefly luciferase reporter gene was maintained by continuous passage in female BALB/c mice and was grown in 96-well blood agar cultures at 27°C, 5% CO2, and 95% humidity. A luciferase-transgenic L. major strain was used to infect BMDM according to our recently established protocol. Briefly, BMDM numbers were adjusted to 2 × 10^5, cultured in 96-well plates and incubated for 4 h to allow adherence to the surface. The promastigote number was adjusted to 3 × 10^6 parasites per ml to achieve an infection rate of 1:15. Then, infection was made by discarding the supernatant of the cultured cells and replacing it with an equal volume of complete RPMI medium containing the promastigotes' suspension. After incubating the infected BMDM (37°C, 5% CO2) for 24 h to allow full differentiation of the promastigotes into amastigotes, the medium containing the extracellular parasites was removed and the wells were washed three times with the same RPMI medium. Five serial dilutions of each substance (1:5) in the same fresh RPMI medium were added to the infected BMDM in duplicate with the appropriate controls. After further 24 h of incubation at 37°C and 5% CO2, the infected BMDM were lysed with a luciferin-containing buffer (Britelite, PerkinElmer, Germany) and luminescence was measured with a luminescence plate reader, Victor X Light 2030 luminometer (PerkinElmer). The IC50 values of the compounds against intracellular amastigotes were calculated based on the intercept theorem, as previously described.

The subject of data set [4] is BMDM. Description: Cytokine production by BMDM (ELISA). Conditions: BMDM supernatants, 48 h. Type of data set: cell-based, BALB/c mice. How it is done:
BMDM were generated from female BALB/c mice as described above in cell culture. 1 × 10^6 BMDM were seeded in a final volume of 0.5 ml in 24-well plates, infected with L. major promastigotes at 15:1 parasite to BMDM ratio, washed and incubated at 37°C for 30 min in complete RPMI medium containing CpG ODN (15 μg/ml). PHMB, CpG ODN or PHMB/CpG ODN polyplexes were added to the pre-activated or control cells and further incubated for 48 h. The supernatants were collected and IL-6, IL-10, IL-4 or TNF-α (Biosciences, Wiesbaden, Germany) concentrations were measured by sandwich ELISA while IL-12p70 was measured by using the IL-12p70 ELISA Ready-SET-Go kit from eBioscience according to the suppliers' instructions.

Data set [5] relates to L. major promastigotes. Briefly: PHMB-FITC uptake into promastigotes (flow cytometry). The conditions noted are these: PHMB-FITC 0.35 μM. In kind it is cell-based, Leishmania major.
Data set [6] concerns BMDM. Briefly: Cellular uptake by BMDM (flow cytometry). In kind it is cell-based, BALB/c mice. Conditions: pre-incubation with inhibitor 30 min, then 4 h. As to the method:
PI and YO-PRO-1 dyes (Life Technologies, Darmstadt, Germany) uptake by the promastigotes was measured by MACS Quant Analyzer (Miltenyi Biotec, Bergisch Gladbach, Germany), and used to indicate membrane integrity. […] L. major promastigotes were treated with 2 μM PHMB for indicated time points and then washed at 3,000 × g for 10 min. The samples were stained by incubating with PI or YO-PRO-1 dyes for 15 min in the dark at RT according to manufacturer’s instructions. The samples were then washed and a total of 100,000 events were immediately acquired by flow cytometry. Similarly, adherent BMDM cells were allowed to take-up fluorescent PHMB (PHMB-FITC conjugate) in the presence or absence of five different pharmacological inhibitors (cytochalasin D (C8273, used at 5 μg/ml), wortmannin (W1628, used at 12.85 μg/ml), chlorpromazine hydrochloride (C8138, used at 10 μg/ml), ikarugamycin (SML0188, used at 1 μM) and dynasore (D7693, used at 25.8 μg/ml), Sigma-Aldrich, Deisenhofen, Germany). PHMB (Polyhexamethylene biguanide; CAS# 27083-27-8; alternative chemical names: polyhexanide, polyamino propylbiguanide, Mw = 2780 g/mol) was provided by the laboratory of Dr. Liam Good and by Tecrea Ltd, London UK (www.tecrea.co.uk), at stock concentrations of 1 mg/ml and 200 mg/ml. […] The data were analyzed using FlowJo software (Tree Star Inc., CA, USA).

The mark [7] stands for this setting: Leishmania major, AlamarBlue, average of 3–6 independent experiments.
Where [8] appears, read: AlamarBlue, average of 3–6 independent experiments.
Setting [9] is: concentration of PHMB within polyplexes.
Setting [10] is: concentration of PHMB within polyplexes, listed as Dynasore (80 μM).
Where [11] appears, read: with dynasore (80 μM), concentration of PHMB within polyplexes.

Structures can show the parent of a compound that is named as a salt. Where two headings read alike, the source gives them in different places.

For the compound `N=C(N)c1ccc(OCCCCCOc2ccc(C(=N)N)cc2)cc1` [Pentamidine, pentamidine isothionate], the concentration for half-maximal inhibition (IC50) in the data set on BMDM [1] (Mus musculus, BMDM) amounted to 128 ± 24 µM; in the data set with L. major promastigotes [2] (setting [7]), 16.2 ± 3.1 µM; in data set [3] (Leishmania major) it was 6.38 ± 2.4 µM.

Take `C[C@@H]1[C@H](O)[C@@H](C)/C=C/C=C/C=C/C=C/C=C/C=C/C=C/[C@H](O[C@@H]2O[C@H](C)[C@@H](O)[C@H](N)[C@@H]2O)C[C@@H]2O[C@](O)(C[C@@H](O)C[C@@H](O)[C@H](O)CC[C@@H](O)C[C@@H](O)CC(=O)O[C@H]1C)C[C@H](O)[C@H]2C(=O)O` [Amphotericin B, amphotericin B]: the IC50 with BMDM [1] (Mus musculus, BMDM) is more than 21 µM; in the data set on L. major promastigotes [2] (setting [7]) it was 0.42 ± 0.5 µM; in data set [3] (Leishmania major), 0.099 ± 0.05 µM.

On to “CpG ODN: unmethylated cytosine-phosphate-guanine oligodeoxynucleotide 1668, sequence TCCATGACGTTCCTGATGCT (DNA, backbone not given here)”, for which the IC50 (in the data set on BMDM [1]; in the data set with L. major promastigotes [2] (setting [8]); in data set [3]) was more than 150 µM each time. Moreover, the IC50 promastigotes entry in the data set with L. major promastigotes [2] (setting [8]) is recorded as “did not show activity”. Moreover, the “cytokine production (IL-6, IL-10, IL-12)” value in the data set on BMDM [4] is reported as “production of all cytokines tested increased with increasing doses”.

Take `O=C(N/N=C/c1ccc(O)c(O)c1)c1cc2ccccc2cc1O` [Dynasore, dynasore]: the “inhibition of PHMB-FITC uptake into promastigotes” value in the data set with L. major promastigotes [5] was “more than 98%”. Moreover, the “IC50 (μM) promastigotes” value in the data set on L. major promastigotes [2] (setting [9]) is listed as “did not display cytotoxicity”; in the data set with L. major promastigotes [2] (setting [10]), “No activity”. The “IC50 promastigotes + dynasore (μM)” value in the data set on L. major promastigotes [2] (setting [11]) is recorded as “No activity”. Besides, the “IC50 (μM) amastigotes” value in data set [3] (setting [9]) is “did not display cytotoxicity”; in data set [3] (setting [10]), “No activity”. For the same compound, the “IC50 amastigotes + dynasore (μM)” value in data set [3] (setting [11]) is reported as “No activity”. The “inhibition of PHMB-FITC uptake by BMDM” value with BMDM [6] was 80%.

In the case of `CCCCCCCCCCCCCCCCOP(=O)([O-])OCC[N+](C)(C)C` [Miltefosine, 1-hexadecylphosphorylcholine], the IC50 was 75.6 ± 10.9 µM in the data set with BMDM [1] (Mus musculus, BMDM); 28.3 ± 5.2 µM in the data set with L. major promastigotes [2] (setting [7]); 54 ± 8.1 µM in data set [3] (Leishmania major).

For `NC[C@@H]1O[C@H](O[C@H]2[C@@H](O)[C@H](O[C@@H]3[C@@H](O)[C@H](N)C[C@H](N)[C@H]3O[C@H]3O[C@H](CO)[C@@H](O)[C@H](O)[C@H]3N)O[C@@H]2CO)[C@H](N)[C@@H](O)[C@@H]1O` [Paromomycin, paromomycin sulfate], the half-inhibitory concentration (IC50) in the data set with BMDM [1] (Mus musculus, BMDM) is more than 900 µM; in the data set with L. major promastigotes [2] (setting [7]), more than 500 µM; in data set [3] (Leishmania major) it was 1500 ± 112 µM.
